Publication PMC8617627, “Novel DYRK1A Inhibitor Rescues Learning and Memory Deficits in a Mouse Model of Down Syndrome” (Pharmaceuticals, 2021)
Read-outs that look alike come from different tables or passages of the source.

Tests used:
Experiment in all cases: Kinase profile (33P ATP filter binding)
Assay type in all cases: biochemical
PKA = PKA (Homo sapiens, UniProt P17612); settings: read-out: Remaining protein kinase activity
IRAK1 = IRAK1 (Homo sapiens, UniProt P51617); settings: read-out: Remaining protein kinase activity
CHK1 = biological target: T1, CHK1 (Homo sapiens, UniProt O14757)
T1 sequence (O14757 1-476): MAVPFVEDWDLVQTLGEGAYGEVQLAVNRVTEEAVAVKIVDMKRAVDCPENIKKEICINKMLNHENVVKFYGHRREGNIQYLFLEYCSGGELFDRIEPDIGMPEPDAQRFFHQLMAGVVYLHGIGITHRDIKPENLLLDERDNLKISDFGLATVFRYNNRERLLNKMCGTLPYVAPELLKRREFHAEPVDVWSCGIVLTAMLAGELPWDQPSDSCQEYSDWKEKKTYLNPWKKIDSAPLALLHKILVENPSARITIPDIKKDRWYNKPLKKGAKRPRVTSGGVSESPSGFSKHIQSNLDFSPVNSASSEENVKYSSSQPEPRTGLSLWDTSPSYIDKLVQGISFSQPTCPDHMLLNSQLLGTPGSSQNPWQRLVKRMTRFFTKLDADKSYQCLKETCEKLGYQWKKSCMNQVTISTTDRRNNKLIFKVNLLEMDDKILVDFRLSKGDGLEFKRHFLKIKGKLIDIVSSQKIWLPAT

EPH-A2 = EPH-A2 (Homo sapiens, UniProt P29317); settings: read-out: Remaining protein kinase activity
EPH-B1 = biological target: T2, EPH-B1 (Homo sapiens, UniProt P54762); settings: read-out: Remaining protein kinase activity
T2 sequence (P54762 18-984): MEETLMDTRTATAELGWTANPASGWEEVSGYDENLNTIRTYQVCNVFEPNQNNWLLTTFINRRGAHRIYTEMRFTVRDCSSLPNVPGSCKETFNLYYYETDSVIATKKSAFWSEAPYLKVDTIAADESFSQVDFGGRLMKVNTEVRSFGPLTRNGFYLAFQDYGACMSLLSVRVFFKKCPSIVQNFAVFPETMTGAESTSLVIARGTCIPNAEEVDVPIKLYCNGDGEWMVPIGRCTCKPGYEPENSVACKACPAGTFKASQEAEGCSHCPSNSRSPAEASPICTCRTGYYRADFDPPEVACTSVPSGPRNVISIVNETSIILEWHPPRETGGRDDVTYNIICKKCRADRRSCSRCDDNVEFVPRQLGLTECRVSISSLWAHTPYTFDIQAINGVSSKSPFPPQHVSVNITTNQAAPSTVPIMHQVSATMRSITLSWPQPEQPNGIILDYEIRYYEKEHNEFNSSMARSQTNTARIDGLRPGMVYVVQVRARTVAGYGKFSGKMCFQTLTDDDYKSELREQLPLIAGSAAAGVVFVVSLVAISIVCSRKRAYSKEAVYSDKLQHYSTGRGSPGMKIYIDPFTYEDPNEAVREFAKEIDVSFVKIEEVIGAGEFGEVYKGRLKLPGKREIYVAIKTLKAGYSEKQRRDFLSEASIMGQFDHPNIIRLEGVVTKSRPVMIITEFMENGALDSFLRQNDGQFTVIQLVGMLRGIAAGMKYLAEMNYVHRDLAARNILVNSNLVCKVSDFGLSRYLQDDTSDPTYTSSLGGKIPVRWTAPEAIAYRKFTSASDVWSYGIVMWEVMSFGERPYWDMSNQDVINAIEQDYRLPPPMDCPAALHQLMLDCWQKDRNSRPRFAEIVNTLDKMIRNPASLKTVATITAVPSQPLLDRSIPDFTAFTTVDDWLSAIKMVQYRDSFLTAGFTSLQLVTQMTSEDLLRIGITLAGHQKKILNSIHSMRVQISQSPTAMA

IRAK1, sequence (P51617 whole entry): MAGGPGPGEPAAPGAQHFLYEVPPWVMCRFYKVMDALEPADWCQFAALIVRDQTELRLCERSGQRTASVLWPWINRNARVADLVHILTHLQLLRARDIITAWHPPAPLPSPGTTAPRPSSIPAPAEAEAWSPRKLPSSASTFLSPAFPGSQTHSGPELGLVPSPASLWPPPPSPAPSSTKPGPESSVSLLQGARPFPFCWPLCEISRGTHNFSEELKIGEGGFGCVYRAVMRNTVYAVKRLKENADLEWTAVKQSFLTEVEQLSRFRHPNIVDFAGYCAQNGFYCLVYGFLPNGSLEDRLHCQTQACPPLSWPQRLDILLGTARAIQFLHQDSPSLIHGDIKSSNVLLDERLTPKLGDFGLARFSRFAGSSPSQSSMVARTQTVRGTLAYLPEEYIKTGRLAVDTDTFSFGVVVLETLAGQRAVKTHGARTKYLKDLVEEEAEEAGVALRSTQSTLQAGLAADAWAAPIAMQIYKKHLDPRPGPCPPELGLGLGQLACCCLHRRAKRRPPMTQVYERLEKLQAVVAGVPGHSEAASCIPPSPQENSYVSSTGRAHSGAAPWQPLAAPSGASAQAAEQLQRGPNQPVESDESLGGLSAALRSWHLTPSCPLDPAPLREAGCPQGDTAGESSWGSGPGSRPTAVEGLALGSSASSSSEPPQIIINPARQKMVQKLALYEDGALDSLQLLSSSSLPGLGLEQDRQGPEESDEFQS
EPH-A2, sequence (P29317 24-976): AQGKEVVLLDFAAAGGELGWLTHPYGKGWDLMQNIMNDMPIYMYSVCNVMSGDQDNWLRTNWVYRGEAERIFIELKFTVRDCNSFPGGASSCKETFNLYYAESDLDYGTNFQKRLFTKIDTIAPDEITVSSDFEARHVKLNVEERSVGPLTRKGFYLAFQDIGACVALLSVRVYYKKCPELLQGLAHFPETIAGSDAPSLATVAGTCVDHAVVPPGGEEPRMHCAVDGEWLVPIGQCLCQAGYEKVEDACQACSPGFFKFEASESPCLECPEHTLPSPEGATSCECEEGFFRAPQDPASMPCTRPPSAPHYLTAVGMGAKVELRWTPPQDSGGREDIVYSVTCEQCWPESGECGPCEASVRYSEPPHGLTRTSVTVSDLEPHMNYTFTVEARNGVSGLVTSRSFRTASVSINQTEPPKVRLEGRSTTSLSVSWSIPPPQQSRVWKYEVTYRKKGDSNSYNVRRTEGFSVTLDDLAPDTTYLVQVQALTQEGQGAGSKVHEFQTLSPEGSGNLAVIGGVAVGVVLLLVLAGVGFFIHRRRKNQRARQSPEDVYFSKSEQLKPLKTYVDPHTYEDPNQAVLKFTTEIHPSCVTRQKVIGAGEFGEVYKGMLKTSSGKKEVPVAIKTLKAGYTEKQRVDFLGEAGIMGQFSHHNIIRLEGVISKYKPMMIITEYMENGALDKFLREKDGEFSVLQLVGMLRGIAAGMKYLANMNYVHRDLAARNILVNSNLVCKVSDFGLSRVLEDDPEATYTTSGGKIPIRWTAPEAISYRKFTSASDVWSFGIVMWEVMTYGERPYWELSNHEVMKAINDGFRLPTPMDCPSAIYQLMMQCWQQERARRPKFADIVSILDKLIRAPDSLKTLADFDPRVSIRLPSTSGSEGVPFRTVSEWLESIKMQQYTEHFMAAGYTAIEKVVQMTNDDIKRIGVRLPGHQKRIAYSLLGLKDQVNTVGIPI

Compound	remaining activity at 1 µM (PKA; PKA, 1 μM) [%]	remaining activity at 100 µM (PKA; PKA, 100 μM) [%]	remaining activity at 1 µM (IRAK1; IRAK1, 1 μM) [%]	remaining activity at 100 µM (IRAK1; IRAK1, 100 μM) [%]	Remaining protein kinase activity (CHK1; 1 μM) [%]	Remaining protein kinase activity (CHK1; 100 μM) [%]	remaining activity at 1 µM (EPH-A2; EPH-A2, 1 μM) [%]	remaining activity at 100 µM (EPH-A2; EPH-A2, 100 μM) [%]	remaining activity at 1 µM (EPH-B1; EPH-B1, 1 μM) [%]	remaining activity at 100 µM (EPH-B1; EPH-B1, 100 μM) [%]	remaining activity at 1 µM (PKA) [%]	remaining activity at 100 µM (PKA) [%]	remaining activity at 1 µM (IRAK1) [%]	remaining activity at 100 µM (IRAK1) [%]	remaining activity at 1 µM (EPH-A2) [%]	remaining activity at 100 µM (EPH-A2) [%]	remaining activity at 1 µM (EPH-B1) [%]	remaining activity at 100 µM (EPH-B1) [%]
COc1ccc2sc(-c3cncc(N)c3)nc2c1 [compound 1, 5-(5-Methoxybenzo[d]thiazol-2-yl)pyridin-3-amine]	98	74	95	24	101	86	112	90	122	91	–	–	–	–	–	–	–	–
COc1ccc2sc(-c3cncc(NC(C)=O)c3)nc2c1 [PST-001, N-(5-(5-Methoxybenzo[d]thiazol-2-yl)pyridin-3-yl)acetamide]	–	–	–	–	104	115	–	–	–	–	88	88	103	93	124	119	117	108
